Reference: patent US11090304B2 (Amgen Inc., priority 2018, dated 2021)
pIC50: −log10 of the molar value. Read-outs that look alike come from different tables or passages of the source.

What was measured:
[1] = test system: Phosphorylation of ERK1/2 in MIA PaCa-2 cells; assay: Phospho-ERK1/2 MSD assay in MIA PaCa-2 cells; format: cell-based; details: read-out: p-ERK IC50 (2 h; MIA PaCa-2), 2 h compound treatment
Procedure, shortened: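 Following a 2 or 4 h incubation with titrated compound, cells receive a 10 min pulse of 10 ng/mL EGF. Phospho-ERK1/2 in RIPA lysates is then quantified by MSD immunoassay, and IC50 values come from a four-parameter logistic model.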

[2] = molecular target: GDP-bound KRAS protein (aa 1-169), containing both G12C and C118A amino acid substitutions (Homo sapiens, UniProt P01116, C118A/G12C); assay: Coupled nucleotide exchange assay (SOS-mediated, AlphaScreen); format: biochemical; details: 5 min compound pre-incubation
Sequence of GDP-bound KRAS protein (aa 1-169), containing both G12C and C118A amino acid substitutions (P01116 1-169 isoform P01116-2 G12C/C118A): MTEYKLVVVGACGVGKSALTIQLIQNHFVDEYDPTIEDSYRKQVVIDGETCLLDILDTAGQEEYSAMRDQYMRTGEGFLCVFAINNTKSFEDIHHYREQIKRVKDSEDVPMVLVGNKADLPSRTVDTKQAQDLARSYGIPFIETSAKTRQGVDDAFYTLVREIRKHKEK

Structure (SMILES)	pIC50 ([1]; Homo sapiens, MIA PaCa-2, 2 h)	Coupled exchange IC50 (5 min) [2]	pIC50 [1]	pIC50 ([1]; Homo sapiens)
C=CC(=O)N1CCN(c2nc(=O)n(-c3ncccc3CC(C)C)c3nc(-c4ccccc4F)c(Cl)cc23)[C@@H](C)C1 [Example 54-102, 6-chloro-7-(2-fluorophenyl)-4-((2S)-2-methyl-4-(2-propenoyl)-1-piperazinyl)-1-(3-(2-methylpropyl)-2-pyridinyl) pyrido[2,3-d]pyrimidin-2(1H)-one]	6.75	0.161 | nda μM	–	–
C=CC(=O)N1CCN(c2nc(=O)n(-c3c(C)ccnc3CC)c3nc(-c4c(O)cccc4F)c(Cl)cc23)[C@@H](C)C1 (single isomer, unassigned) [Example 55-10-2]	–	0.266 | nda μM	6.46	–
C=CC(=O)N1CCN(c2nc(=O)n(-c3ccccc3C(C)C)c3nc(-c4cc(F)ccc4O)c(Cl)cc23)[C@@H](C)C1 (single isomer, unassigned) [Example 54-78-2]	6.51	0.212 | nda μM	–	–
C=CC(=O)N1CCN(c2nc(=O)n(-c3cncnc3C3(C)CC3)c3nc(-c4ccccc4F)c(Cl)cc23)[C@@H](C)C1 [Example 54-54, 6-chloro-7-(2-fluorophenyl)-1-(4-(1-methyl-cyclopropyl)-5-pyrimidinyl)-4-((2S)-2-methyl-4-(2-propenoyl)-1-piperazinyl) pyrido[2,3-d]pyrimidin-2(1H)-one]	6.44	0.377 | nda μM	–	–
C=CC(=O)N1CCN(c2nc(=O)n(-c3ccccc3C(C)C)c3nc(-c4cc(O)ccc4Cl)c(Cl)cc23)[C@@H](C)C1 [Example 54-90, 6-chloro-7-(2-chloro-5-hydroxy-phenyl)-4-((2S)-2-methyl-4-(2-propenoyl)-1-piperazinyl)-1-(2-(2-propanyl)phenyl)pyrido [2,3-d]pyrimidin-2(1H)-one]	6.92	0.105 | nda μM	–	–
C=CC(=O)N1CCN(c2nc(=O)n(-c3ccccc3C(C)C)c3nc(-c4cc(N)ccc4Cl)c(Cl)cc23)[C@@H](C)C1 (single isomer, unassigned) [Example 56-7-1]	–	0.079 | nda μM	7.54	–
C=CC(=O)N1CCN(c2nc(=O)n(-c3ccccc3C(C)C)c3nc(-c4cc(N)ccc4Cl)c(Cl)cc23)[C@@H](C)C1 (single isomer, unassigned) [Example 56-7-2]	–	0.676 | nda μM	6.87	–
C=CC(=O)N1CCN(c2nc(=O)n(-c3ncccc3CC(C)C)c3nc(-c4c(O)cccc4F)c(Cl)cc23)[C@@H](C)C1 [Example 54-101, 6-chloro-7-(2-fluoro-6-hydroxyphenyl)-4-((2S)-2-methyl-4-(2-propenoyl)-1-piperazinyl)-1-(3-(2-methylpropyl)-2-pyridinyl) pyrido[2,3-d]pyrimidin-2(1H)-one]	6.80	0.162 | nda μM	–	–
C=CC(=O)N1CCN(c2nc(=O)n(-c3c(C)cc(CO)cc3C(C)C)c3nc(-c4ccccc4F)c(Cl)cc23)[C@@H](C)C1 (single isomer, unassigned) [Example 80-2-2]	7.33	0.048 | nda μM	–	–
C=CC(=O)N1CCN(c2nc(=O)n(-c3c(C)cccc3C(C)(C)C)c3nc(-c4c(O)cccc4F)c(F)cc23)[C@@H](C)C1 (single isomer, unassigned) [Example 57-17-1]	6.52	0.316 | nda μM	–	–
C=CC(=O)N1CCN(c2nc(=O)n(-c3c(Cl)cccc3C(C)C)c3nc(-c4c(O)cccc4F)c(F)cc23)[C@@H](C)C1 (single isomer, unassigned) [Example 57-15-2]	–	0.841 | nda μM	6.01	–
C=CC(=O)N1CCN(c2nc(=O)n(-c3c(C)ccnc3C(C)C)c3nc(-c4c(O)cccc4F)c(F)cc23)[C@@H](C(F)F)C1 (single isomer, unassigned) [Example 75-9-2, (M)-4-((2S or 2R)-2-(difluoromethyl)-4-(2-propenoyl)-1-piperazinyl)-6-fluoro-7-(2-fluoro-6-hydroxyphenyl)-1-(4-methyl-2-(2-propanyl)-3-pyridinyl)pyrido[2,3-d]pyrimidin-2(1H)-one]	–	0.136 | nda μM	–	6.95
C=CC(=O)N1CCN(c2nc(=O)n(-c3c(C)ccnc3C(C)C)c3nc(-c4cc(N)ccc4Cl)c(F)cc23)[C@@H](C)C1 (single isomer, unassigned) [Example 58-8-1]	6.74	0.213 | nda μM	–	–
C=CC(=O)N1CCN(c2nc(=O)n(-c3ccccc3C(C)C)c3nc(-c4cc(N)ncc4Cl)c(Cl)cc23)[C@@H](C)C1 [Example 54-95, 7-(2-amino-5-chloro-4-pyridinyl)-6-chloro-4-((2S)-2-methyl-4-(2-propenoyl)-1-piperazinyl)-1-(2-(2-propanyl)phenyl)pyrido [2,3-d]pyrimidin-2(1H)-one]	6.09	0.756 | nda μM	–	–

Second part, led by results:

pIC50 ([1]; Homo sapiens, MIA PaCa-2, 2 h)	Coupled exchange IC50 (5 min) [2]	pIC50 [1]	Structure (SMILES)	pIC50 ([1]; Homo sapiens)
7.04	0.055 | nda μM	–	C=CC(=O)N1CCN(c2nc(=O)n(-c3c(C)cccc3C3CC3)c3nc(-c4c(O)cccc4F)c(Cl)cc23)[C@@H](C)C1 [Example 55-15, 6-chloro-1-(2-cyclopropyl-6-methylphenyl)-7-(2-fluoro-6-hydroxyphenyl)-4-((2S)-2-methyl-4-(2-propenoyl)-1-piperazinyl)pyrido[2,3-d]pyrimidin-2(1H)-one]	–
6.98	0.452 | nda μM	–	C=CC(=O)N1CCN(c2nc(=O)n(-c3ncccc3C(C)C)c3nc(-c4c(O)cccc4F)c(F)cc23)[C@@H](C)C1 [Example 57-10, 6-fluoro-7-(2-fluoro-6-hydroxyphenyl)-4-((2S)-2-methyl-4-(2-propenoyl)-1-piperazinyl)-1-(3-(2-propanyl)-2-pyridinyl)pyrido[2,3-d]pyrimidin-2(1H)-one]	–
6.66	0.095 | nda μM	–	C=CC(=O)N1CCN(c2nc(=O)n(-c3c(C)ccnc3C(C)C)c3nc(-c4c(O)cccc4Cl)c(F)cc23)[C@@H](C)C1 [Example 58-9, 7-(2-chloro-6-hydroxyphenyl)-6-fluoro-1-(4-methyl-2-(2-propanyl)-3-pyridinyl)-4-((2S)-2-methyl-4-(2-propenoyl)-1-piperazinyl)pyrido[2,3-d]pyrimidin-2(1H)-one]	–
7.21	0.124 | nda μM	–	C=CC(=O)N1CCN(c2nc(=O)n(-c3c(C)ccnc3C(C)C)c3nc(-c4ccccc4F)c(Cl)cc23)CC1 (single isomer, unassigned) [Example 78-15, (M)-6-chloro-7-(2-fluorophenyl)-1-(4-methyl-2-(2-propanyl)-3-pyridinyl)-4-(4-(2-propenoyl)-1-piperazinyl)pyrido[2,3-d]pyrimidin-2(1H)-one]	–
7.48	0.035 | nda μM	–	C=CC(=O)N1C[C@@H](C)N(c2nc(=O)n(-c3c(C(C)C)ncnc3C(C)C)c3nc(-c4ccccc4F)c(Cl)cc23)[C@@H](C)C1 [Example 87-2, 6-chloro-4-((2R,6S)-2,6-dimethyl-4-(2-propenoyl)-1-piperazinyl)-1-(4,6-di(2-propanyl)-5-pyrimidinyl)-7-(2-fluorophenyl)pyrido[2,3-d]pyrimidin-2(1H)-one]	–
